For 33 molecules, IC50 results are on record in US20230174530A1, “N-(PHENYLAMINOCARBONYL) TETRAHYDRO-ISOQUINOLINES AND RELATED COMPOUNDS AS MODULATORS OF GPR65” (PATHIOS THERAPEUTICS LIMITED, priority 2020, published 2023).

SMILES strings stand for the structures.

For the assay, the target named is T1, human recombinant GPR65 (Homo sapiens, UniProt Q8IYL9).
T1 construct: host or cells: 1321N1 human astrocytoma cells (1321N1-hrGPR65)
T1 sequence (Q8IYL9 whole entry): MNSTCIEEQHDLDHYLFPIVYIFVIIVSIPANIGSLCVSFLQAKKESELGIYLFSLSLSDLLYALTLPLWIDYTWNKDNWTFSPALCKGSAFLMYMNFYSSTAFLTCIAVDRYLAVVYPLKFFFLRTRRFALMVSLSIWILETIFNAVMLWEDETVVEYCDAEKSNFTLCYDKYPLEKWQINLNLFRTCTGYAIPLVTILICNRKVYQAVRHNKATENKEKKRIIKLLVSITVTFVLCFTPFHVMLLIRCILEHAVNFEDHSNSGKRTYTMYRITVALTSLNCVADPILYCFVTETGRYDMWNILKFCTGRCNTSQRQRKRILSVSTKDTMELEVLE
Kind of assay: Human GPR65 cAMP HTRF antagonist assay. Format: cell-based. The following applies: 1321N1-hrGPR65 cells stimulated at assay pH 7.2; suppression of cAMP rise; read-out: hGPR65 IC50. As to the method: Human GPR65 Cyclic Adenosine Monophosphate (cAMP) Homogeneous Time Resolved Fluorescence (HTRF) Antagonist Assay Procedure
IC50 data was obtained by the following procedure:
1321N1 human astrocytoma cells stably expressing human recombinant GPR65 (1321N1-hrGPR65 cells, EuroscreenFast) were cultured according to the vendor's instructions.
Compounds were tested for their ability to antagonise GPR65, through measuring the concentration of cytoplasmic cAMP following treatment of the cells at a pH of 7.2 to activate GPR65 signalling and addition of the compound to be tested. The extent to which the expected rise in cAMP concentration upon GPR65 activation was suppressed by the added compound is indicative of its potency. The assay was carried out according to EuroscreenFast assay methodology as follows.
On the day of the assay, test compounds were added to 384-well, low volume, white microtiter plates by acoustic dispensing. KRH buffer (5 mM KCl, 1.25 mM MgSO4, 124 mM NaCl, 25 mM HEPES, 13.3 mM Glucose, 1.25 mM KH2PO4 and 1.45 mM CaCl2) was adjusted to pH 6.5, pH 7.6 and pH 8.4 by adding NaOH. 1321N1-hGPR65 cells were rapidly thawed and diluted in KRH, pH 7.6 prior to centrifugation at 300×g for 5 min and resuspension in assay buffer (KRH, pH 7.6, supplemented with 1 mM 3-isobutyl-1-methylxanthine (IBMX) and 200 μM ethylenediaminetetraacetic acid (EDTA)). Cells were added to assay plates at a density of 2,000 cells per well in a volume of 5 μl. Assay plates were briefly centrifuged at 100×g and then incubated at room temperature for 30 min. Cells were stimulated by the addition of 5 μL KRH, pH 6.5, to achieve an assay pH of 7.2, while control wells received 5 μl KRH, pH 8.4 to achieve an assay pH of 7.9. Assay plates were briefly centrifuged at 100×g and then incubated at room temperature for 30 min.
Accumulation of cAMP was detected by cAMP HTRF kit (Cisbio). d2-labeled cAMP and cryptate-labeled anti-cAMP antibody in Lysis and Detection Buffer (Cisbio) were added to assay plates, and the plates were incubated at room temperature for 1 h. HTRF measurements were performed using a Pherastar FSX instrument. Acceptor and donor emission signals were measured at 665 nm and 620 nm, respectively, and HTRF ratios were calculated as signal665 nm/signal620 nm×10^4. Data were normalised to high and low control values and fitted with 4-parameter logistic regression to determine hGPR65 IC50 values for the test compounds, which are shown in Table 1.
Usually IC50 stands for the point on the concentration scale where inhibition reaches its midpoint. As for `N#Cc1ccc2c(c1)CCN(C(=O)Nc1ccc(C(F)(F)F)c(Cl)c1)C2` [Compound 39, N-(3-Chloro-4-(trifluoromethyl)phenyl)-6-cyano-3,4-dihydroisoquinoline-2(1H)-carboxamide], the IC50 is less than 0.5 µM.

For `N#Cc1ccc2c(c1)CCN(C(=O)Nc1ccc(Cl)c(C(F)(F)F)c1)C2` [Compound 38, N-(4-Chloro-3-(trifluoromethyl)phenyl)-6-cyano-3,4-dihydroisoquinoline-2(1H)-carboxamide], the IC50 lay in the range of 0.5 to 5 µM.

Turning to `O=C(Nc1ccc(Cl)c(Cl)c1)N1CCc2ccc(F)cc2C1` [Compound 31, N-(3,4-Dichlorophenyl)-7-fluoro-3,4-dihydroisoquinoline-2(1H)-carboxamide], the IC50 is less than 0.5 µM.

Consider `COc1ccc2c(c1)CN(C(=O)Nc1ccc(Cl)c(C(F)(F)F)c1)CC2` [Compound 62, N-(4-Chloro-3-(trifluoromethyl)phenyl)-7-methoxy-3,4-dihydroisoquinoline-2(1H)-carboxamide], for which the IC50 was more than 5 µM. For `O=C(Nc1ccc(C(F)(F)F)c(Cl)c1)N1CCc2cnc(Cl)cc2C1` [Compound 90, 7-Chloro-N-(3-chloro-4-(trifluoromethyl)phenyl)-3,4-dihydro-2,6-naphthyridine-2(1H)-carboxamide], the IC50 lay in the range of 0.5 to 5 µM. The figure for `O=C(Nc1ccc(Cl)c(Cl)c1)N1CCc2cnccc2C1` [Compound 12, N-(3,4-Dichlorophenyl)-3,4-dihydro-2,6-naphthyridine-2(1H)-carboxamide] is 0.5 to 5 µM. For `O=C(Nc1ccc(Cl)c(C(F)(F)F)c1)N1CCc2ccncc2C1` [Compound 16, N-(4-Chloro-3-(trifluoromethyl)phenyl)-3,4-dihydro-2,7-naphthyridine-2(1H)-carboxamide] the value was 0.5 to 5 µM. Take `O=C(Nc1ccc(Cl)c(Cl)c1)N1CCc2cccc(Cl)c2C1` [Compound 139, 8-Chloro-N-(3,4-dichlorophenyl)-3,4-dihydroisoquinoline-2(1H)-carboxamide]: the IC50 fell in the range of 0.5 to 5 µM. Turning to `Nc1cc2c(cn1)CCN(C(=O)Nc1ccc(C(F)(F)F)c(Cl)c1)C2` [Compound 83, 7-Amino-N-(3-chloro-4-(trifluoromethyl)phenyl)-3,4-dihydro-2,6-naphthyridine-2(1H)-carboxamide], the IC50 is less than 0.5 µM. For the molecule `O=C(Nc1ccc(C(F)(F)F)cc1)N1CCc2ncncc2C1` [Compound 4, N-(4-(Trifluoromethyl)phenyl)-7,8-dihydropyrido[4,3-d]pyrimidine-6(5H)-carboxamide], the IC50 was more than 5 µM. For `O=C(Nc1ccc(Cl)c(Cl)c1)N1CCc2cncnc2C1` [Compound 8, N-(3,4-Dichlorophenyl)-5,8-dihydropyrido[3,4-d]pyrimidine-7(6H)-carboxamide] the value was more than 5 µM; for `COc1ccc2c(c1)CCN(C(=O)Nc1ccc(Cl)c(Cl)c1)C2` [Compound 65, N-(3,4-Dichlorophenyl)-6-methoxy-3,4-dihydroisoquinoline-2(1H)-carboxamide], more than 5 µM. As to `Cc1ccc2c(c1)CN(C(=O)Nc1ccc(Cl)c(Cl)c1)CC2` [Compound 34, N-(3,4-Dichlorophenyl)-7-methyl-3,4-dihydroisoquinoline-2(1H)-carboxamide], the IC50 was more than 5 µM. As to `O=C(Nc1ccc(Cl)c(Cl)c1)N1CCc2cc(F)ncc2C1` [Compound 85, N-(3,4-dichlorophenyl)-6-fluoro-3,4-dihydro-2,7-naphthyridine-2(1H)-carboxamide], the IC50 is less than 0.5 µM. As to `Cc1cccc2c1CCN(C(=O)Nc1ccc(Cl)c(C(F)(F)F)c1)C2` [Compound 59, N-(4-Chloro-3-(trifluoromethyl)phenyl)-5-methyl-3,4-dihydroisoquinoline-2(1H)-carboxamide], the IC50 was in the range of 0.5 to 5 µM. The figure for `Cc1cccc2c1CN(C(=O)Nc1ccc(Cl)c(Cl)c1)CC2` [Compound 27, N-(3,4-Dichlorophenyl)-8-methyl-3,4-dihydroisoquinoline-2(1H)-carboxamide] is 0.5 to 5 µM; for `N#Cc1cccc2c1CN(C(=O)Nc1ccc(C(F)(F)F)c(Cl)c1)CC2` [Compound 132, N-(3-Chloro-4-(trifluoromethyl)phenyl)-8-cyano-3,4-dihydroisoquinoline-2(1H)-carboxamide] it is 0.5 to 5 µM; for `COC(=O)c1ccc2c(c1)CCN(C(=O)Nc1ccc(Cl)c(Cl)c1)C2` [Compound 114, Methyl 2-((3,4-dichlorophenyl)carbamoyl)-1,2,3,4-tetrahydroisoquinoline-6-carboxylate] it is less than 0.5 µM. `O=C(Nc1ccc(C(F)(F)F)c(Cl)c1)N1CCc2ncccc2C1` [Compound 22, N-(3-Chloro-4-(trifluoromethyl)phenyl)-7,8-dihydro-1,6-naphthyridine-6(5H)-carboxamide]: the IC50 was more than 5 µM. For `O=C(Nc1ccc(C(F)(F)F)c(Cl)c1)N1CCc2cccc(F)c2C1` [Compound 47, N-(3-Chloro-4-(trifluoromethyl)phenyl)-8-fluoro-3,4-dihydroisoquinoline-2(1H)-carboxamide] the value was 0.5 to 5 µM; for `O=C(Nc1ccc(Cl)c(C(F)(F)F)c1)N1CCc2cccc(F)c2C1` [Compound 46, N-(4-Chloro-3-(trifluoromethyl)phenyl)-8-fluoro-3,4-dihydroisoquinoline-2(1H)-carboxamide], more than 5 µM.

Regarding `O=C(Nc1ccc(Cl)c(C(F)(F)F)c1)N1CCc2cc(F)ccc2C1` [Compound 43, N-(4-Chloro-3-(trifluoromethyl)phenyl)-6-fluoro-3,4-dihydroisoquinoline-2(1H)-carboxamide], the IC50 is less than 0.5 µM. Consider `N#Cc1ccc2c(c1)CN(C(=O)Nc1ccc(C(F)(F)F)c(Cl)c1)CC2` [Compound 51, N-(3-Chloro-4-(trifluoromethyl)phenyl)-7-cyano-3,4-dihydroisoquinoline-2(1H)-carboxamide], for which the half-inhibitory concentration (IC50) lay within 0.5 to 5 µM. Consider `O=C(Nc1cccc(Cl)c1)N1CCc2ncncc2C1` [Compound 3, N-(3-Chlorophenyl)-7,8-dihydropyrido[4,3-d]pyrimidine-6(5H)-carboxamide], for which the IC50 is more than 5 µM.

In the case of `O=C(Nc1ccc(Cl)c(Cl)c1)N1CCc2cc(-c3cccnc3F)ccc2C1` [Compound 126, N-(3,4-Dichlorophenyl)-6-(2-fluoropyridin-3-yl)-3,4-dihydroisoquinoline-2(1H)-carboxamide], the IC50 was in the range of 0.5 to 5 µM.

Turning to `O=C(Nc1ccc(C(F)(F)F)c(Cl)c1)N1CCc2c[n+]([O-])ccc2C1` [Compound 79, 6-((3-Chloro-4-(trifluoromethyl)phenyl)carbamoyl)-5,6,7,8-tetrahydro-2,6-naphthyridine 2-oxide], the IC50 is less than 0.5 µM. As to `COc1cc2c(cn1)CCN(C(=O)Nc1ccc(C(F)(F)F)c(Cl)c1)C2` [Compound 107, N-(3-Chloro-4-(trifluoromethyl)phenyl)-7-methoxy-3,4-dihydro-2,6-naphthyridine-2(1H)-carboxamide], the IC50 was more than 5 µM. The figure for `O=C(Nc1ccc(C(F)(F)F)c(Cl)c1)N1CCc2ccc(F)cc2C1` [Compound 33, N-(3-Chloro-4-(trifluoromethyl)phenyl)-7-fluoro-3,4-dihydroisoquinoline-2(1H)-carboxamide] is less than 0.5 µM. With `O=C(Nc1ccc(Cl)c(Cl)c1)N1CCc2c(Cl)cccc2C1` [Compound 55, 5-Chloro-N-(3,4-dichlorophenyl)-3,4-dihydroisoquinoline-2(1H)-carboxamide], the half-maximal inhibitory concentration (IC50) is 0.5 to 5 µM. `O=C(Nc1ccc(Cl)c(Cl)c1)N1CCc2nonc2C1` [Compound 101, N-(3,4-Dichlorophenyl)-6,7-dihydro-[1,2,5]oxadiazolo[3,4-c]pyridine-5(4H)-carboxamide]: the IC50 lay within 0.5 to 5 µM. The figure for `O=C(Nc1ccc(Cl)c(Cl)c1)N1CCc2cc(O)ccc2C1` [Compound 95, N-(3,4-Dichlorophenyl)-6-hydroxy-3,4-dihydroisoquinoline-2(1H)-carboxamide] is more than 5 µM; for `O=C(Nc1ccc(Cl)c(Cl)c1)N1CCc2cn3cncc3cc2C1` [Compound 117, N-(3,4-Dichlorophenyl)-6,7-dihydroimidazo[1,5-b][2,6]naphthyridine-8(9H)-carboxamide] it is less than 0.5 µM.

Turning to `O=C(Nc1ccc(Cl)c(Cl)c1)N1CCc2[nH]c(=O)ccc2C1` [Compound 78, N-(3,4-Dichlorophenyl)-2-oxo-1,5,7,8-tetrahydro-1,6-naphthyridine-6(2H)-carboxamide], the IC50 is more than 5 µM.
